Test results published in patent US5834506A, “Dihydropyrones with improved antiviral activity” (Warner-Lambert Company, priority 1997, dated 1998).

Legend:
HIV-1 protease = target: T1, HIV-1 protease (Human immunodeficiency virus type 1 group M subtype B, UniProt P04585); test: biochemical; conditions: 6.0 nM HIV-1 protease, 40 μM substrate III, 37° C., 5 minutes; read-out: Inhib of HIV-Protease IC50
T1 construct: Recombinant HIV-1 protease (>96% purity); purchased Bachem Bioscience Inc. (King of Prussia, PA)
From the text: The testing of specific 5,6-dihydropyrones as inhibitors of the HIV aspartyl protease, based on the study of the hydrolysis of an undecapeptide enzyme substrate, and the testing of the 5,6-dihydropyrones as inhibitors of viral growth and infectivity, based on the study of infection of H9 cell lines by the HIV-1iiib strain, are also disclosed. […] The methods employed follow the procedures of Tummino, et al. (Archives of Biochemistry and Biophysics 1995, 316, 523).
(§1) The compounds of the present invention were evaluated for their in vitro inhibition of HIV-1 protease and for their antiviral efficacy in HIV infected lymphocytes.
Recombinant HIV-1 protease (>96% purity) and HIV protease substrate III (the undecapeptide H-His-Lys-Ala-Arg-Val-Leu-Nph-Glu-Ala-Nle-Ser-NH2,>97% purity) were purchased from Bachem Bioscience Inc. (King of Prussia, PA).
The methods employed follow the procedures of Tummino, et al. (Archives of Biochemistry and Biophysics 1995, 316, 523). […] (total volume, 100 μl). […] The final inhibitor concentrations used were 0 (0.1, 0.2, in some experiments), 0.5, 1, 2, 5, 10, 20, 50, and 100 μM. The solution was mixed, incubated for 5 minutes and the reaction quenched by addition of trifluoracetic acid, 2% final. The (leu-p-nitro-phe) bond of the substrate is cleaved by the enzyme and substrate and products separated by reverse-phase HPLC. Absorbance was measured at 220 nm, peak areas determined, and percentage conversion to product used to calculate percentage control (=[% conversion (+inhibitor)/% conversion (-inhibitor)]×100).

[1] = test system: HIV in lymphocyte derived CEM cells; test: Cellular Infection Assay, antiviral efficacy in HIV infected CEM cells (XTT cytopathic procedure); type: cell-based; conditions: Human immunodeficiency virus 1, CCRF-CEM, CEM cells; for EC95: protecting the cells 95% relative to untreated control; for EC50: reduces HIV cytopathic effects 50% relative to untreated control, read-out: Antiviral Efficacy EC50
Description: as §1
(§2) Compounds were tested in lymphocyte derived CEM cells using the XTT cytopathic procedures and were performed at Southern Research Institute (Buckheit, et. al. Antiviral Res. 1993, 21, 247; see also Weislow, et al. J Nat. Cancer Inst., 1989, 81, 577). Compound concentrations were 0.32, 1, 3.2, 10, 32 and 100 uM. The EC50 represents the concentration of agent which reduces HIV cytopathic effects 50% relative to untreated control. EC95 represents the concentration of agent protecting the cells 95% relative to untreated control. Cellular toxicity of the agents are estimated from the TC50 which represents the concentration of the agent which inhibits 50% of the viability of uninfected cells.

[2] = Cellular toxicity in uninfected CEM cells (TC50); type: cell-based; conditions: human, inhibits 50% of the viability of uninfected cells
Description: as §2

Compound	IC50 (HIV-1 protease)	EC50 [1]	EC95 [1]	CC50 [2]
Cc1cc(SC2=C(O)CC(CCc3ccc(O)cc3)(C(C)C)OC2=O)c(C(C)(C)C)cc1NC(=S)N1CCNCC1 (centres unmarked) [Example 83]	0.041 µM	43 µM	92 µM	> 100 µM
CCNS(=O)(=O)Oc1cc(C(C)(C)C)c(SC2=C(O)CC(CCc3ccc(O)cc3)(C3CCN(C(C)=O)CC3)OC2=O)cc1C (centres unmarked) [Example 89]	0.012 µM	32 µM	89 µM	> 100 µM
Cc1cc(SC2=C(O)CC(CCc3ccc(O)cc3)(C(C)C)OC2=O)c(C(C)(C)C)cc1N(C)C (centres unmarked) [Example 93]	0.011 µM	1.9 µM	10 µM	68 µM
Cc1ccc(C(C)(C)C)c(SC2=C(O)CC(CCc3ccccc3)(CCc3ccccc3)OC2=O)c1 [Ref A, 3-(2-tert-Butyl-5-methyl-phenylsulfanyl)-4-hydroxy-6,6-diphenethyl-5,6-dihydro-pyran-2-one, reference compound]	0.15 µM	> 23 µM		23 µM
Cc1ccc(C(C)(C)C)c(SC2=C(O)CC(CCc3ccccc3)(CCC(C)C)OC2=O)c1 (centres unmarked) [Ref C, 3-(2-tert-Butyl-5-methyl-phenylsulfanyl)-4-hydroxy-6-(3-methyl-butyl)-6-phenethyl-5,6-dihydro-pyran-2-one, reference compound]	0.07 µM	> 28 µM		28 µM

Now those with a lower IC50 (HIV-1 protease), led by results:

IC50 (HIV-1 protease)	EC50 [1]	Compound	EC95 [1]	CC50 [2]
0.0013 µM	0.4 µM	Cc1cc(SC2=C(O)CC(CCc3ccc(N)cc3)(C(C)C)OC2=O)c(C(C)(C)C)cc1OS(=O)(=O)c1ccc(C#N)cc1 (centres unmarked) [Example 86]	3.7 µM	53 µM
0.0022 µM	0.8 µM	Cc1cc(SC2=C(O)CC(CCc3ccc(O)cc3)(C3CCC3)OC2=O)c(C(C)(C)C)cc1CO (centres unmarked) [Example 98]	1.9 µM	> 100 µM
